Results: PubChem BioAssay AID2060491 (Molecular Pharmacology Branch, DTP, NCI, 2025)

System: 857933-349-R-J2-PDC complex spheroids, viability
Test: Anticancer human tumor 857933-349-R-J2-PDC patient-derived colon adenocarcinoma cell line growth inhibition [GQUAD]
Details: for IC50: curve of first compound; for viability, T/C: stronger effect = lower value; active = viability on the fitted dose curve at most 10% of control; inactive = the rest
How it was run: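 Tumor cells were grown as complex spheroids with HUVEC endothelial cells and mesenchymal stem cells as stroma. G-quadruplex stabilizers were combined with targeted agents over half-log dilutions from near the clinical Cmax, or from 10 microM.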

[1] = second compound 0.0316 µM, first compound 0.0316 µM
[2] = second compound 0.0316 µM, first compound 0.1 µM
[3] = second compound 0.0316 µM, first compound 0.316 µM
[4] = second compound 0.0316 µM, first compound 1 µM
[5] = second compound 0.0316 µM, first compound 3.16 µM
[6] = second compound 0.0316 µM, first compound 10 µM
[7] = second compound 0.1 µM, first compound 0.0316 µM
[8] = second compound 0.1 µM, first compound 0.1 µM
[9] = second compound 0.1 µM, first compound 0.316 µM
[10] = second compound 0.1 µM, first compound 1 µM
[11] = second compound 0.1 µM, first compound 3.16 µM
[12] = second compound 0.1 µM, first compound 10 µM
[13] = second compound 0.316 µM, first compound 0.0316 µM
[14] = second compound 0.316 µM, first compound 0.1 µM
[15] = second compound 0.316 µM, first compound 0.316 µM
[16] = second compound 0.316 µM, first compound 1 µM
[17] = second compound 0.316 µM, first compound 3.16 µM
[18] = second compound 0.316 µM, first compound 10 µM
[19] = second compound 1 µM, first compound 0.0316 µM
[20] = second compound 1 µM, first compound 0.1 µM
[21] = second compound 1 µM, first compound 0.316 µM
[22] = second compound 1 µM, first compound 1 µM
[23] = second compound 1 µM, first compound 3.16 µM
[24] = second compound 1 µM, first compound 10 µM
[25] = second compound 3.16 µM, first compound 0.0316 µM
[26] = second compound 3.16 µM, first compound 0.1 µM
[27] = second compound 3.16 µM, first compound 0.316 µM
[28] = second compound 3.16 µM, first compound 1 µM
[29] = second compound 3.16 µM, first compound 3.16 µM
[30] = second compound 3.16 µM, first compound 10 µM
[31] = second compound 10 µM, first compound 0.0316 µM
[32] = second compound 10 µM, first compound 0.1 µM
[33] = second compound 10 µM, first compound 0.316 µM
[34] = second compound 10 µM, first compound 1 µM
[35] = second compound 10 µM, first compound 3.16 µM
[36] = second compound 10 µM, first compound 10 µM
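Also: spheroids exposed to compounds for one week before readout.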
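For viability, T/C in this document: percent viability relative to vehicle DMSO wells taken as 100%.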

COc1cc(C2c3cc4c(cc3C(OC3OC5COC(C)OC5C(O)C3O)C3COC(=O)C23)OCO4)cc(OC)c1O (stereo unspecified) + Cc1[nH]c2ccc(F)cc2c1-c1nc2c3cccnc3c3ncccc3c2[nH]1
962 nM: IC50 (second compound 0.1 µM)
980 nM: IC50 (second compound 10 µM)
1410 nM: IC50 (second compound 1 µM)
964 nM: IC50 (second compound 3.16 µM)
935 nM: IC50 (second compound 0.0316 µM)
inactive: viability, T/C [1] 84.8% | viability, T/C [2] 62.7% | viability, T/C [3] 58% | viability, T/C [4] 53.8% | viability, T/C [5] 42.1% | viability, T/C [6] 24.6% | viability, T/C [7] 86.5% | viability, T/C [8] 73.6% | viability, T/C [9] 50.9% | viability, T/C [10] 59.4% | viability, T/C [11] 38.8% | viability, T/C [12] 24.9% | viability, T/C [13] 88.9% | viability, T/C [14] 69.8% | viability, T/C [15] 55.9% | viability, T/C [16] 59% | viability, T/C [17] 38.9% | viability, T/C [18] 25.4% | viability, T/C [19] 81.4% | viability, T/C [20] 71.8% | viability, T/C [21] 50.7% | viability, T/C [22] 63.1% | viability, T/C [23] 44.6% | viability, T/C [24] 23.5% | viability, T/C [25] 94.9% | viability, T/C [26] 65.3% | viability, T/C [27] 47.6% | viability, T/C [28] 56.2% | viability, T/C [29] 45.4% | viability, T/C [30] 24% | viability, T/C [31] 90.7% | viability, T/C [32] 69.5% | viability, T/C [33] 49.8% | viability, T/C [34] 56.5% | viability, T/C [35] 50.7% | viability, T/C [36] 27.7%
1030 nM: IC50 (second compound 0.316 µM)

COc1cccc2c1C(=O)c1c(O)c3c(c(O)c1C2=O)CC(O)(C(=O)CO)CC3OC1CC(N)C(O)C(C)O1 (stereo unspecified) + Cc1[nH]c2ccc(F)cc2c1-c1nc2c3cccnc3c3ncccc3c2[nH]1
505 nM: IC50 (second compound 10 µM)
965 nM: IC50 (second compound 0.316 µM)
572 nM: IC50 (second compound 3.16 µM)
839 nM: IC50 (second compound 1 µM)
721 nM: IC50 (second compound 0.1 µM)
inactive: viability, T/C [1] 90.5% | viability, T/C [2] 66% | viability, T/C [3] 59.2% | viability, T/C [4] 41.6% | viability, T/C [5] 5.07% | viability, T/C [7] 81.5% | viability, T/C [8] 63.5% | viability, T/C [9] 59.7% | viability, T/C [10] 49.2% | viability, T/C [11] 7.76% | viability, T/C [13] 74.2% | viability, T/C [14] 66.8% | viability, T/C [15] 56.4% | viability, T/C [16] 51% | viability, T/C [19] 79.9% | viability, T/C [20] 62.5% | viability, T/C [21] 61.9% | viability, T/C [22] 48.6% | viability, T/C [25] 79.4% | viability, T/C [26] 65.7% | viability, T/C [27] 59.4% | viability, T/C [28] 43.6% | viability, T/C [29] 6.19% | viability, T/C [31] 93% | viability, T/C [32] 74.5% | viability, T/C [33] 58.5% | viability, T/C [34] 43.7% | viability, T/C [35] 5.74%
444 nM: IC50 (second compound 0.0316 µM)
active: viability, T/C [6] 0.26% | viability, T/C [12] 0.17% | viability, T/C [17] 5.84% | viability, T/C [18] 0.2% | viability, T/C [23] 5.97% | viability, T/C [24] 0.21% | viability, T/C [30] 0.26% | viability, T/C [36] 0.29%

O=c1[nH]cc(F)c(=O)[nH]1 + Cc1[nH]c2ccc(F)cc2c1-c1nc2c3cccnc3c3ncccc3c2[nH]1
2100 nM: IC50 (second compound 0.316 µM)
1800 nM: IC50 (second compound 0.1 µM)
inactive: viability, T/C [1] 97.1% | viability, T/C [2] 111% | viability, T/C [3] 99% | viability, T/C [4] 65.7% | viability, T/C [5] 33.3% | viability, T/C [6] 22.6% | viability, T/C [7] 104% | viability, T/C [8] 103% | viability, T/C [9] 96.8% | viability, T/C [10] 64.8% | viability, T/C [11] 36% | viability, T/C [12] 22.5% | viability, T/C [13] 100% | viability, T/C [14] 99.3% | viability, T/C [15] 94% | viability, T/C [16] 74.9% | viability, T/C [17] 36.1% | viability, T/C [18] 22.6% | viability, T/C [19] 101% | viability, T/C [20] 98.2% | viability, T/C [21] 96.7% | viability, T/C [22] 75.7% | viability, T/C [23] 37% | viability, T/C [24] 23% | viability, T/C [25] 96.3% | viability, T/C [26] 94.7% | viability, T/C [27] 96.7% | viability, T/C [28] 73.8% | viability, T/C [29] 36.1% | viability, T/C [30] 22.6% | viability, T/C [31] 93.2% | viability, T/C [32] 96.8% | viability, T/C [33] 95.2% | viability, T/C [34] 82% | viability, T/C [35] 35.3% | viability, T/C [36] 24.8%
2060 nM: IC50 (second compound 3.16 µM)
1720 nM: IC50 (second compound 0.0316 µM)
2150 nM: IC50 (second compound 1 µM)
2200 nM: IC50 (second compound 10 µM)
